Test results as given in EP0497258B1, “Use of adenosine antagonists in the prevention and treatment of pancreatitis and ulcer” (FUJISAWA PHARMACEUTICAL CO., LTD., priority 1991, dated 1992).

Experiments:
Assay type in all cases: in vivo, Sprague-Dawley rats
[1] = system: CHA(N^6-cyclohexyladenosine)-induced pancreatitis; assay: Effect on CHA-induced pancreatitis (serum amylase); settings: 10 mg/kg orally 30 minutes before CHA; for inhibition %: inhibition of CHA-induced serum amylase increase; for serum amylase (10^3 IU/ℓ): male rats, CHA 3.2 mg/kg orally, blood after 24 hours, Normal 4.1 ± 0.2, Control 28.3 ± 10.0
Method: Male Sprague-Dawley rats, weighing 245-260 g, were deprived of food but allowed free access to water for 24 hours CHA was given orally at a dose of 3.2 mg/kg. After 24 hours, animals were killed and blood samples were collected. Subsequently, the blood serum was prepared and amylase concentration was determined. The test compounds (1) to (5) (10 mg/kg) or vehicle (to control group) was given orally 30 minutes before CHA administration. In Normal group, vehicle was given instead of CHA.

[2] = system: CHA(N^6-cyclohexyladenosine)-induced gastric ulcer; assay: Effect on CHA-induced gastric ulcer; settings: 10 mg/kg orally 30 minutes before CHA; for inhibition %: inhibition of ulcer index vs Control; for ulcer index (mm^2): male rats, CHA 1 mg/kg subcutaneously, stomachs examined after 7 hours, Control 65.0 ± 18.4
Method: Male Sprague-Dawley rats, weighing 225-259 g, were deprived of food but allowed free access to water for 24 hours. CHA was given subcutaneously at a dose of 1 mg/kg. After 7 hours, animals were killed and stomachs were removed. Subsequently, the stomachs were inflated by injecting 12 ml of 2% formalin to fix the inner layer of gastric walls. Ten minutes later, they were incised along the greater curvature and examined for lesions. Test Compounds (1) to (5) (10 mg/kg) or vehicle (to control group) was given orally 30 minutes before CHA administration.

[3] = system: ischemia induced gastric ulcer; assay: Effect on ischemia induced gastric ulcer (left gastric artery ligation)
Method: Male Sprague-Dawley rats (9 or 10 rats for one group) weighing 230 to 270 g were fasted for 24 hours but allowed free access to water ad libitum.
Under ether anesthesia, the abdomen was incised and the left gastric artery was ligated. After closing the abdomen, animals were maintained an regular feed with water ad libitum. The test compound (1) (10 mg/kg/5 ml) for the test group or vehicle (0.1 % methyl cellulose, 5 ml/kg) for the control group was given orally twice a day (9:00 a.m. and 5:00 p.m.) from the first day after the operation for 3 consecutive days. On the fourth day after the operation, the test compound (for the test group) or vehicle (for the control group) was given at 9:00 a.m. and animals were killed at.5:00 p.m.. The stomach was examined for ulcers.
Ulcer index was expressed as lesion area (mean ± standard error).

[4] = system: serum amylase increment induced by caerulein administration with water immersion restraint stress; assay: Effect on serum amylase increment induced by caerulein administration with water immersion restraint stress; settings: male rats, caerulein 50 µg/kg s.c. + water immersion restraint at 23°C for 7 hours; 1 mg/kg orally 30 minutes before caerulein; mean ± standard error; control group 22.5 ± 3.3
Method: Male Sprague-Dawley rats (6 rats for one group) weighing 210 to 240 g were fasted for 24 hours but allowed free access to water ad libitum. Immediately after caerulein administration (50 µg/kg/2 ml s.c.), rats were placed in restraint cages and immersed in water at 23°C for 7 hours. The animals were killed and blood sample was collected from femoral blood vessels. Serum amylase was measured using Neo-Amylase Test "DAIICHI" (trademark, prepared by DAIICHI KAGAKU YAKUHIN). The test compound (1) (1 mg/kg/5 ml) for the test group or vehicle (0.1 % methyl cellulose, 5 ml/kg) for the control group was given orally 30 minutes before caerulein administration.
Serum amylase concentration was expressed as mean ± standard error.

Row | Structure (SMILES) | inhibition % [1] [%] | serum amylase (10^3 IU/ℓ) [1] | inhibition % [2] [%] | ulcer index (mm^2) [2] [mm^2] | inhibition % ([3]; inhibition of ulcer index vs control group, 10 mg/kg orally twice a day) [%] | ulcer index (mm^2) ([3]; male rats, left gastric artery ligated, 10 mg/kg orally twice a day from first day after operation, killed on fourth day, lesion area, mean ± standard error, control group 26.2 ± 6.0) | serum amylase (10^3 IU/L) [4]
1 | O=C(C=Cc1c(-c2ccccc2)nn2ccccc12)N1CCCC[C@@H]1CCO [Test Compound (1), (2R)-1-[3-(2-Phenylpyrazolo[1,5-a]pyridin-3-yl)acryloyl]-2-(2-hydroxyethyl)piperidine] | 69.4 | 11.5 ± 5.8 10^3 IU/ℓ | 99.4 | 0.4 ± 0.4 | 45.8 | 14.2 ± 4.0 | 13.8 ± 1.0 10^3 IU/L
2 | O=C(O)CCCn1nc(-c2c(-c3ccccc3)nn3ccccc23)ccc1=O [Test Compound (2), 3-[2-(3-Carboxypropyl)-3-oxo-2,3-dihydropyridazin-6 yl]-2-phenylpyrazolo[1,5-a]pyridine] | 99.6 | 4.2 ± 0.3 10^3 IU/ℓ | 97.1 | 1.9 ± 1.9 |  |  | 
3 | O=C(O)C[C@H]1CCCCN1C(=O)C=Cc1c(-c2ccccc2)nn2ccccc12 [Test Compound (3), (2R)-1-[3-(2-Phenylpyrazolo[1,5-a]pyridin-3-yl)acryloyl]-2-(carboxymethyl)piperidine] | 92.6 | 5.9 ± 1.0 10^3 IU/ℓ | 99.8 | 0.1 ± 0.1 |  |  | 
